Experimental data reported in article PMC4322620 (Frontiers in Pharmacology, 2015).
Where a SMILES comes first, the peptide text is derived from it. [ ]: non-standard residue; d: D form. pGlu = O=C1CC[C@@H](C(=O)O)N1

What was measured:
NTS1 (HT-29 cells) = NTS1 (HT-29 cells) (Homo sapiens, UniProt P30989); assay: cell-based
[1] = molecular target: neurotensin receptors (HT-29 cells) (Homo sapiens, UniProt P30989); type: cell-based
Chain of neurotensin receptors (HT-29 cells) (P30989 whole entry, looked up): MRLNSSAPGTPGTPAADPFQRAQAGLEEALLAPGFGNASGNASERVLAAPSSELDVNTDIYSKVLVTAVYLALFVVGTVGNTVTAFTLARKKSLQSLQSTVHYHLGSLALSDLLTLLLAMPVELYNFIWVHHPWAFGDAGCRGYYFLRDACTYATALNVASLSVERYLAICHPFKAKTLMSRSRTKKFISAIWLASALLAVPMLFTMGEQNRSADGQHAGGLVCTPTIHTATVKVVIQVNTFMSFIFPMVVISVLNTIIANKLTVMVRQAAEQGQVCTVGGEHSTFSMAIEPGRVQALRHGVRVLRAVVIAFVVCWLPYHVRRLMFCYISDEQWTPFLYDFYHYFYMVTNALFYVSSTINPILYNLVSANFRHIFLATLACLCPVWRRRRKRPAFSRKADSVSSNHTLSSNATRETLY

Chain of NTS1 (HT-29 cells) (P30989 whole entry, looked up): as above

| Compound | EC50 (NTS1 (HT-29 cells)) [nM] | DC50 [1] [nM] | DC50/EC50 [1] |
| --- | --- | --- | --- |
| CC[C@H](C)[C@H](NC(=O)[C@H](Cc1ccc(O)cc1)NC(=O)[C@@H]1CCCN1C(=O)[C@H](CCCNC(=N)N)NC(=O)[C@H](CCCNC(=N)N)NC(=O)[C@@H]1CCCN1C(=O)[C@H](CCC(=O)O)NC(=O)[C@H](CC(N)=O)NC(=O)[C@H](CCC(=O)O)NC(=O)[C@H](Cc1ccc(O)cc1)NC(=O)[C@H](CC(C)C)NC(=O)[C@@H]1CCC(=O)N1)C(=O)N[C@@H](CC(C)C)C(=O)O [[E6] NT] | 4.7 ± 1.4 | 57.5 ± 5.9 | 12 |
| CC[C@H](C)[C@H](NC(=O)[C@H](Cc1ccc(O)cc1)NC(=O)[C@@H]1CCCN1C(=O)[C@H](CCCCN)NC(=O)[C@H](CCCCN)NC(=O)[C@@H]1CCCN1C(=O)[C@H](CCCCN)NC(=O)[C@H](CC(N)=O)NC(=O)[C@H](CCC(=O)O)NC(=O)[C@H](Cc1ccc(O)cc1)NC(=O)[C@H](CC(C)C)NC(=O)[C@@H]1CCC(=O)N1)C(=O)N[C@@H](CC(C)C)C(=O)O [[K8, K9] NT] ([pGlu]LYENKPKKPYIL-OH) | 20.2 ± 5.2 | 67 ± 18.1 | 3.3 |
| CC[C@H](C)[C@H](NC(=O)[C@H](Cc1ccc(O)cc1)NC(=O)[C@@H]1CCCN1C(=O)[C@H](CCCNC(=N)N)NC(=O)[C@H](CCCNC(=N)N)NC(=O)[C@@H]1CCCN1C(=O)[C@H](CCCCN)NC(=O)[C@H](CC(N)=O)NC(=O)[C@H](C)NC(=O)[C@H](Cc1ccc(O)cc1)NC(=O)[C@H](CC(C)C)NC(=O)[C@@H]1CCC(=O)N1)C(=O)N[C@@H](CC(C)C)C(=O)O [[A4] NT] | 0.6 ± 0.1 | 11.7 ± 1.4 | 20 |
| CC[C@H](C)[C@H](NC(=O)[C@H](Cc1ccc(O)cc1)NC(=O)[C@@H]1CCCN1C(=O)[C@H](CCCNC(=N)N)NC(=O)[C@H](CCCNC(=N)N)NC(=O)[C@@H]1CCCN1C(=O)[C@H](CCCCN)NC(=O)[C@H](CC(N)=O)NC(=O)[C@H](CCCCN)NC(=O)[C@H](Cc1ccc(O)cc1)NC(=O)[C@H](CC(C)C)NC(=O)[C@@H]1CCC(=O)N1)C(=O)N[C@@H](CC(C)C)C(=O)O [[K4] NT] | 1.4 ± 0.1 | 30.5 ± 6.2 | 22 |
